Source: article PMC3413742 (Biological psychiatry, 2012)

Assays:
hDAT Y335A = hDAT Y335A (Homo sapiens, UniProt Q01959, Y335A); test: [3H]DA uptake inhibition in COS-7 cells expressing hDAT Y335A mutant; assay type: cell-based
NET [1] = molecular target: T1, NET (Homo sapiens, UniProt P23975); test: [3H]DA uptake inhibition at the NET; assay type: cell-based
NET [2] = molecular target: T1, NET; test: [3H]nisoxetine binding at the NET
[3] = test system: mice trained to discriminate cocaine (10 mg/kg) from saline; test: Cocaine discrimination procedure; assay type: in vivo, mouse; details: for substitution for the discriminative-stimulus effects of cocaine: pretreatment time 60 min
hDAT WT [4] = molecular target: T2, hDAT WT (Homo sapiens, UniProt Q01959); test: [3H]WIN 35,428 binding in COS-7 cells transiently expressing hDAT WT; details: R- versus S-modafinil
T2 sequence (Q01959 whole entry): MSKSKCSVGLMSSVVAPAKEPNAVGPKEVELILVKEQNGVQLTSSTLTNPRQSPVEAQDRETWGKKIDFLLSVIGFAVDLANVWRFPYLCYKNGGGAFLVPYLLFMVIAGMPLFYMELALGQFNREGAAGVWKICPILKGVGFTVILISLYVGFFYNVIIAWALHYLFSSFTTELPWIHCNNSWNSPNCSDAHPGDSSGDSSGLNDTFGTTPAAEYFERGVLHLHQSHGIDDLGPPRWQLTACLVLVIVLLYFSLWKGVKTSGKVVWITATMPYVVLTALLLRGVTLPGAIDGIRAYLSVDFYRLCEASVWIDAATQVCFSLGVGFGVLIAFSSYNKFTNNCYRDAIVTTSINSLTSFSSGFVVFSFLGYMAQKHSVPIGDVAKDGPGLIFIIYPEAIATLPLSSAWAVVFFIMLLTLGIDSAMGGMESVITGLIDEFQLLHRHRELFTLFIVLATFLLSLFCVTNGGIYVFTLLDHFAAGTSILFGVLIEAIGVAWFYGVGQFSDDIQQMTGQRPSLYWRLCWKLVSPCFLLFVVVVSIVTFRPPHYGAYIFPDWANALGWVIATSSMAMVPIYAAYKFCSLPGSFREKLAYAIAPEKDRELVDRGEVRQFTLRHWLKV

[5] = test system: extracellular DA concentrations in the mouse NAc shell; test: Microdialysis of extracellular DA in the NAc shell; assay type: in vivo
DAT = details: rat brain tissue; cited from earlier work
hDAT WT [6] = molecular target: T2, hDAT WT; test: [3H]DA uptake inhibition in COS-7 cells transiently expressing hDAT WT; assay type: cell-based

T1 sequence (P23975 whole entry): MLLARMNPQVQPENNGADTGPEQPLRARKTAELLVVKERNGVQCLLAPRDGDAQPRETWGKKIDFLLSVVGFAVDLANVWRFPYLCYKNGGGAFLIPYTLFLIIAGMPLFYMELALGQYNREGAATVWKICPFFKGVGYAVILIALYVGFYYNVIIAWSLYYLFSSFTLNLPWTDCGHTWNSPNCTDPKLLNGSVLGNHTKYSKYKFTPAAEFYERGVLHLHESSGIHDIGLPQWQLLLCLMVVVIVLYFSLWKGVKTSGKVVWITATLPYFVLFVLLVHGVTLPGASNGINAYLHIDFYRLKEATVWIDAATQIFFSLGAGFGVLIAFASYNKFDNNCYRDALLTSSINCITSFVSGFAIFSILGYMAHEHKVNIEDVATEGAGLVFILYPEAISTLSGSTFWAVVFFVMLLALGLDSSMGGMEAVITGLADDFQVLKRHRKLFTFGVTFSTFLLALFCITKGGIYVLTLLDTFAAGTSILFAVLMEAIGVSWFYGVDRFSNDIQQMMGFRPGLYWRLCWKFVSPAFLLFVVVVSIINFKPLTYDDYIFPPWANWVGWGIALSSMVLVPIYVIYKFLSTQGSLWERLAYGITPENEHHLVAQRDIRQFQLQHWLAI
Sequence of hDAT Y335A (Q01959 whole entry Y335A): as the sequence (Q01959 whole entry) above, with Y335A counted along it

Question: Which “Y335A:WT IC50 ratio for [3H]DA uptake inhibition” value (hDAT Y335A) does the source give for CCCCN1[C@@H]2CC[C@H]1CC(OC(c1ccc(F)cc1)c1ccc(F)cc1)C2 (stereo partly shown) [JHW 007] here?
Answer: ~ 20 fold

Question: Which IC50 (NET [1]; read-out: IC50, inhibition of [3H]DA uptake at the NET, N=3, data not shown) does the source give for NC(=O)C[S@+]([O-])C(c1ccccc1)c1ccccc1 [S-modafinil, S-(+)-modafinil] here?
Answer: > 100 µM

Question: What about the IC50 (NET [2]; read-out: IC50, inhibition of [3H]nisoxetine binding at the NET, N=3, data not shown) of the same compound?
Answer: > 100 µM

Question: What about the “ED50 Value, substitution for cocaine (95% confidence limits)” value ([3]; cocaine 5 min, modafinils 60 min before testing) of the same compound?
Answer: 89.0 (64.0 – 115) μmol/kg

Question: And the “substitution for the discriminative-stimulus effects of cocaine” value [3]?
Answer: fully substituted for cocaine

Question: Which results are given for NC(=O)C[S@@+]([O-])C(c1ccccc1)c1ccccc1 [R-modafinil, R-(−)-modafinil]?
Answer: higher affinity for DAT than the S-enantiomer (hDAT WT [4]): ~ 3 fold; IC50 (NET [1]): > 100 µM; IC50 (NET [2]): > 100 µM; extracellular DA levels, stimulation as % of DA basal levels ([5]; 30, 100, 300 mg/kg i.p.): approximately 300 % of DA basal levels; time after injection at which DA stimulation was reached ([5]; 30, 100, 300 mg/kg i.p.): 40 to 60 min; substitution for the discriminative-stimulus effects of cocaine [3]: fully substituted for cocaine; higher affinity for the DAT than the S-enantiomer (DAT): ~ 3 fold

Question: Which “extracellular DA levels, maximum as % of basal levels” value ([5]; 10 – 55 mg/kg) does the source give for COC(=O)[C@H]1[C@@H](OC(=O)c2ccccc2)C[C@@H]2CC[C@H]1N2C [cocaine] here?
Answer: approximately 700 % of basal levels

Question: What about the “time after injection of maximum DA” value ([5]; 10 – 55 mg/kg) of the same compound?
Answer: ~ 30 min

Question: Which results are given for NC(=O)C[S+]([O-])C(c1ccccc1)c1ccccc1 (racemic) [(±)-modafinil]?
Answer: [3H]DA uptake inhibition potency lower than observed for DA (hDAT WT [6]): more than 7 fold; substitution for the discriminative-stimulus effects of cocaine [3]: fully substituted for cocaine
